Consider 2 molecules from ChEMBL document CHEMBL3232964, “Quinone-carbohydrate nonglucoside conjugates as a new type of cytotoxic agents: synthesis and determination of in vitro activity” (Eur J Med Chem, 2014).

Calls of active or inactive are those of the source. The rule behind the calls is not given here.

Series [1] is described as follows: Induction of apoptosis in tumor promotion-sensitive mouse JB6 Cl41 cells assessed as viable cells at 2.5 uM after 24 hrs by Annexin-V-FITC/propidium iodide staining based flow cytometry (reference value: 94.33 +/- 0.87%). In kind it is cell-based. The settings on record: read-out: Activity. A general note: Flow cytometry measures light scatter and fluorescence of single cells or particles in a stream.

Series [2] can be described thus: Induction of apoptosis in tumor promotion-sensitive mouse JB6 Cl41 cells assessed as dead cells at 2.5 uM after 24 hrs by Annexin-V-FITC/propidium iodide staining based flow cytometry (reference value: 2.99 +/- 0.82%). Format: cell-based. The settings on record: jb6 cl41, 24 h.
Series [3] in a line: Induction of apoptosis in tumor promotion-sensitive mouse JB6 Cl41 cells assessed as early apoptotic cells at 5 uM after 24 hrs by Annexin-V-FITC/propidium iodide staining based flow cytometry (reference value: 2.15 +/- 1.18%). Format: cell-based. The settings on record: jb6 cl41, 24 h.
Series [4] is described as follows: Induction of apoptosis in tumor promotion-sensitive mouse JB6 Cl41 cells assessed as late apoptotic/necrotic cells at 5 uM after 24 hrs by Annexin-V-FITC/propidium iodide staining based flow cytometry (reference value: 0.53 +/- 0.47%). The settings on record: jb6 cl41, 24 h. Format: cell-based.
A short description of series [5]: Induction of apoptosis in tumor promotion-sensitive mouse JB6 Cl41 cells assessed as viable cells at 5 uM after 24 hrs by Annexin-V-FITC/propidium iodide staining based flow cytometry (reference value: 94.33 +/- 0.87%). Format: cell-based. The settings on record: read-out: Activity.
Series [6] is described as follows: Induction of apoptosis in tumor promotion-sensitive mouse JB6 Cl41 cells assessed as dead cells at 5 uM after 24 hrs by Annexin-V-FITC/propidium iodide staining based flow cytometry (reference value: 2.99 +/- 0.82%). Format: cell-based. The settings on record: jb6 cl41, 24 h.
Series [7] is described as follows: Induction of apoptosis in tumor promotion-sensitive mouse JB6 Cl41 cells assessed as early apoptotic cells at 10 uM after 24 hrs by Annexin-V-FITC/propidium iodide staining based flow cytometry (reference value: 2.15 +/- 1.18%). In kind it is cell-based. The conditions noted are these: jb6 cl41, 24 h.
The nature of series [8]: Induction of apoptosis in tumor promotion-sensitive mouse JB6 Cl41 cells assessed as late apoptotic/necrotic cells at 10 uM after 24 hrs by Annexin-V-FITC/propidium iodide staining based flow cytometry (reference value: 0.53 +/- 0.47%). In kind it is cell-based. The settings on record: jb6 cl41, 24 h.
Series [9] can be described thus: Induction of apoptosis in tumor promotion-sensitive mouse JB6 Cl41 cells assessed as viable cells at 10 uM after 24 hrs by Annexin-V-FITC/propidium iodide staining based flow cytometry (reference value: 94.33 +/- 0.87%). Format: cell-based. The conditions noted are these: read-out: Activity.
Series [10] is described as follows: Induction of apoptosis in tumor promotion-sensitive mouse JB6 Cl41 cells assessed as dead cells at 10 uM after 24 hrs by Annexin-V-FITC/propidium iodide staining based flow cytometry (reference value: 2.99 +/- 0.82%). Format: cell-based. The settings on record: jb6 cl41, 24 h.
A short description of series [11]: Induction of apoptosis in tumor promotion-sensitive mouse JB6 Cl41 cells assessed as early apoptotic cells at 20 uM after 24 hrs by Annexin-V-FITC/propidium iodide staining based flow cytometry (reference value: 2.15 +/- 1.18%). Format: cell-based. The settings on record: jb6 cl41, 24 h.
Series [12] in a line: Induction of apoptosis in tumor promotion-sensitive mouse JB6 Cl41 cells assessed as late apoptotic/necrotic cells at 20 uM after 24 hrs by Annexin-V-FITC/propidium iodide staining based flow cytometry (reference value: 0.53 +/- 0.47%). The conditions noted are these: jb6 cl41, 24 h. Format: cell-based.
A short description of series [13]: Induction of apoptosis in tumor promotion-sensitive mouse JB6 Cl41 cells assessed as viable cells at 20 uM after 24 hrs by Annexin-V-FITC/propidium iodide staining based flow cytometry (reference value: 94.33 +/- 0.87%). Format: cell-based. The conditions noted are these: read-out: Activity.
Series [14] can be described thus: Induction of apoptosis in tumor promotion-sensitive mouse JB6 Cl41 cells assessed as dead cells at 20 uM after 24 hrs by Annexin-V-FITC/propidium iodide staining based flow cytometry (reference value: 2.99 +/- 0.82%). The settings on record: jb6 cl41, 24 h. In kind it is cell-based.
Series [15] deals with Cellular tumor antigen p53 (Mus musculus) (UniProt P02340). As to the kind of experiment: Inhibition of p53-dependent transcriptional activity in tumor promotion-sensitive mouse JB6 Cl41 cells after 12 hrs by luciferase-based method. Format: cell-based.
Sequence of Cellular tumor antigen p53 (Mus musculus) (P02340 whole entry): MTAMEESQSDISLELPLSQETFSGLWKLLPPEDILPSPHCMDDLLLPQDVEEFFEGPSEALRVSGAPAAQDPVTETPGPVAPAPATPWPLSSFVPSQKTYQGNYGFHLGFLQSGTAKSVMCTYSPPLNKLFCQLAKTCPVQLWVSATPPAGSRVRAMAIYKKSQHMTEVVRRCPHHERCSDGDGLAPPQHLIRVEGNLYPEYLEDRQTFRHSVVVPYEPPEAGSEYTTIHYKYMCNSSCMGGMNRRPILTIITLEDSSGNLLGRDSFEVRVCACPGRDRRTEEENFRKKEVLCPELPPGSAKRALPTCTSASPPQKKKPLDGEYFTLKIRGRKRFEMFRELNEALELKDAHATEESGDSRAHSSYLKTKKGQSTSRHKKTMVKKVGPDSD
Series [16] relates to HeLa. As to the kind of experiment: Cytotoxicity against human HeLa cells assessed as cell viability after 24 hrs by MTS assay. In kind it is functional, cell-based.
Series [17] has as its system HeLa. As to the kind of experiment: Cytotoxicity against human HeLa cells assessed as cell viability after 48 hrs by MTS assay. In kind it is functional, cell-based. (In general: Tetrazolium dyes change colour on reduction, which living cells bring about.)
Series [18] is described as follows: Cytotoxicity against tumor promotion-sensitive mouse JB6 Cl41 cells assessed as cell viability after 48 hrs by MTS assay. The settings on record: JB6 Cl41, 48 h. In kind it is cell-based.
The test system of series [19] is HeLa. Description: Cytotoxicity against human HeLa cells assessed as inhibition of number of colonies formed in soft agar after 14 days by microscopic analysis. In kind it is functional.
For series [20], the system named is HeLa. Description: Ratio of IC50 to INCC50 for human HeLa cells. Format: functional.
The test system of series [21] is HeLa. As to the kind of experiment: Induction of p53-independent apoptosis in human HeLa cells assessed as early apoptotic cells at 2.5 uM after 24 hrs by Annexin-V-FITC/propidium iodide double staining based flow cytometry (reference value: 6.71 +/- 4.41%). In kind it is functional.
The subject of series [22] is HeLa. As to the kind of experiment: Induction of p53-independent apoptosis in human HeLa cells assessed as late apoptotic/necrotic cells at 2.5 uM after 24 hrs by Annexin-V-FITC/propidium iodide double staining based flow cytometry (reference value: 0.88 +/- 0.72%). In kind it is functional.
Series [23] concerns HeLa. Description: Induction of p53-independent apoptosis in human HeLa cells assessed as viable cells at 2.5 uM after 24 hrs by Annexin-V-FITC/propidium iodide double staining based flow cytometry (reference value: 88.52 +/- 11%). The conditions noted are these: read-out: Activity. In kind it is functional.
The test system of series [24] is HeLa. As to the kind of experiment: Induction of p53-independent apoptosis in human HeLa cells assessed as dead cells at 2.5 uM after 24 hrs by Annexin-V-FITC/propidium iodide double staining based flow cytometry (reference value: 3.89 +/- 0.3%). Format: functional.
Series [25] deals with HeLa. As to the kind of experiment: Induction of p53-independent apoptosis in human HeLa cells assessed as early apoptotic cells at 5 uM after 24 hrs by Annexin-V-FITC/propidium iodide double staining based flow cytometry (reference value: 6.71 +/- 4.41%). In kind it is functional.
Series [26] relates to HeLa. Description: Induction of p53-independent apoptosis in human HeLa cells assessed as late apoptotic/necrotic cells at 5 uM after 24 hrs by Annexin-V-FITC/propidium iodide double staining based flow cytometry (reference value: 0.88 +/- 0.72%). In kind it is functional.
Series [27] deals with HeLa. As to the kind of experiment: Induction of p53-independent apoptosis in human HeLa cells assessed as viable cells at 5 uM after 24 hrs by Annexin-V-FITC/propidium iodide double staining based flow cytometry (reference value: 88.52 +/- 11%). In kind it is functional. The settings on record: read-out: Activity.
The subject of series [28] is HeLa. Description: Induction of p53-independent apoptosis in human HeLa cells assessed as dead cells at 5 uM after 24 hrs by Annexin-V-FITC/propidium iodide double staining based flow cytometry (reference value: 3.89 +/- 0.3%). Format: functional.
Series [29] deals with HeLa. Description: Induction of p53-independent apoptosis in human HeLa cells assessed as early apoptotic cells at 10 uM after 24 hrs by Annexin-V-FITC/propidium iodide double staining based flow cytometry (reference value: 6.71 +/- 4.41%). Format: functional.
Series [30] has as its system HeLa. Description: Induction of p53-independent apoptosis in human HeLa cells assessed as late apoptotic/necrotic cells at 10 uM after 24 hrs by Annexin-V-FITC/propidium iodide double staining based flow cytometry (reference value: 0.88 +/- 0.72%). In kind it is functional.
Series [31] deals with HeLa. Description: Induction of p53-independent apoptosis in human HeLa cells assessed as viable cells at 10 uM after 24 hrs by Annexin-V-FITC/propidium iodide double staining based flow cytometry (reference value: 88.52 +/- 11%). Format: functional. The settings on record: read-out: Activity.
Series [32] deals with HeLa. Description: Induction of p53-independent apoptosis in human HeLa cells assessed as dead cells at 10 uM after 24 hrs by Annexin-V-FITC/propidium iodide double staining based flow cytometry (reference value: 3.89 +/- 0.3%). Format: functional.
The subject of series [33] is HeLa. As to the kind of experiment: Induction of p53-independent apoptosis in human HeLa cells assessed as early apoptotic cells at 20 uM after 24 hrs by Annexin-V-FITC/propidium iodide double staining based flow cytometry (reference value: 6.71 +/- 4.41%). In kind it is functional.
The subject of series [34] is HeLa. As to the kind of experiment: Induction of p53-independent apoptosis in human HeLa cells assessed as late apoptotic/necrotic cells at 20 uM after 24 hrs by Annexin-V-FITC/propidium iodide double staining based flow cytometry (reference value: 0.88 +/- 0.72%). Format: functional.
Series [35] has as its system HeLa. As to the kind of experiment: Induction of p53-independent apoptosis in human HeLa cells assessed as viable cells at 20 uM after 24 hrs by Annexin-V-FITC/propidium iodide double staining based flow cytometry (reference value: 88.52 +/- 11%). In kind it is functional. The conditions noted are these: read-out: Activity.
Series [36] has as its system HeLa. As to the kind of experiment: Induction of p53-independent apoptosis in human HeLa cells assessed as dead cells at 20 uM after 24 hrs by Annexin-V-FITC/propidium iodide double staining based flow cytometry (reference value: 3.89 +/- 0.3%). Format: functional.
The nature of series [37]: Induction of apoptosis in tumor promotion-sensitive mouse JB6 Cl41 cells assessed as early apoptotic cells at 2.5 uM after 24 hrs by Annexin-V-FITC/propidium iodide staining based flow cytometry (reference value: 2.15 +/- 1.18%). Format: cell-based. The settings on record: jb6 cl41, 24 h.
Series [38] can be described thus: Induction of apoptosis in tumor promotion-sensitive mouse JB6 Cl41 cells assessed as late apoptotic/necrotic cells at 2.5 uM after 24 hrs by Annexin-V-FITC/propidium iodide staining based flow cytometry (reference value: 0.53 +/- 0.47%). Format: cell-based. The settings on record: jb6 cl41, 24 h.
The nature of series [39]: Cytotoxicity against tumor promotion-sensitive mouse JB6 Cl41 cells expressing luciferase reporter gene assessed as cell viability after 12 hrs by MTS assay. In kind it is cell-based. The settings on record: jb6 cl41, 12 h. (In general: Reporter assays use an easily measured gene product as a stand-in for the process of interest.)

As a reminder, the IC50 is the concentration that inhibits the measured activity by half. `CO[C@H]1O[C@H](COC2=CC(=O)c3c(O)ccc(O)c3C2=O)[C@@H](O)[C@H](O)[C@H]1O`: the viability at 24 h, 2.5 µM in [1] stood at 91.7%. Further, the Activity is 2.99% in series [2]; 1.8% in [3]; 2.96% in [4]; 0.4% in series [6]; 7.41% in series [7]; 1.91% in series [8]. Besides, the Activity in series [10] stood at 3.17%; in series [11] it was 40.96%; in series [12], 13.91%; in [14], 31.75%; in the series with HeLa [21] it was 8.28%; in the series on HeLa [22] it was 1.55%. In addition, the Activity with HeLa [24] worked out at 2.8%; with HeLa [25], 6.44%; with HeLa [26], 1.35%; with HeLa [28], 2.67%; in the series on HeLa [29], 7.99%; with HeLa [30] it was 1.74%. The Activity was 2.77% with HeLa [32]; 14.06% with HeLa [33]; 24.44% in the series with HeLa [34]; 31.42% in the series on HeLa [36]; 1.84% in series [37]; 2.46% in series [38]. In addition, the viability at 24 h, 5 µM in series [5] was found to be 88.8%. Further, the viability at 24 h, 10 µM in [9] stood at 87.5%. Also, in series [13], the viability at 24 h, 20 µM worked out at 13.4%. For the same molecule, the inhibition entry in series [15] is “Active”. Moreover, the results for the IC50 (in the series with HeLa [16]; with HeLa [17]; in series [18]) were 7.54 µM, 7.89 µM and 8.47 µM, respectively. For the same molecule, the INCC50 with HeLa [19] was 4.03 µM. In addition, in the series on HeLa [20], the Ratio stood at 1.96. Moreover, the viability at 2.5 µM in the series with HeLa [23] was found to be 87.4%. The viability at 5 µM in the series on HeLa [27] came out at 89.5%. In addition, the viability at 10 µM with HeLa [31] was found to be 87.5%. Also, the viability at 20 µM in the series with HeLa [35] came to 30.1%.
For `CO[C@H]1O[C@H](CO)[C@@H](O)[C@H](O)[C@H]1O`, in series [15], the inhibition entry was “inactive”. In addition, the Activity result in [39] is “Non-toxic”. For the same molecule, the IC50 (in the series with HeLa [16]; in the series with HeLa [17]; in [18]) was > 200 µM throughout. In addition, the INCC50 with HeLa [19] was >200 µM.
